# Source: patent publication US20090215853A1, “Flavopereirine and alstonine combinations in the treatment and prevention of prostate cancer” (Natural Source International, priority 2004, published 2009)
# Assays:
# LNCaP cells = assay: Induction of apoptosis in LNCaP cells (PARP cleavage, Caspase-3 activity); format: cell-based, human; conditions: 24 hours (FIG. 2)
# normal DNA = conditions: Oncotest; cited from earlier work
Compound,apoptosis as determined by cleavage of PARP and induction of Caspase-3 (LNCaP cells),effect on normal DNA (normal DNA)
COC(=O)C1=CO[C@@H](C)[C@@H]2Cn3ccc4c5ccccc5nc-4c3C[C@H]12 [alstonine],relatively minor effect,no effect on normal DNA
CCc1ccc2c3[nH]c4ccccc4c3cc[n+]2c1 [flavopereirine],induction of apoptosis,no effect on normal DNA
